Assay [1] deals with T1, nuclear factor-kappa B (NF-kB)-inducing kinase (NIK) (Homo sapiens, UniProt Q99558).
T1 construct: made in house; host or cells: baculovirus-infected insect cells
As to the kind of experiment: NIK Enzyme Inhibition Assay (Transcreener ADP assay). It is filed as biochemical. Particulars: purified NIK 0.2-1 nM, 10 uM ATP, fluorescence polarization, Morrison's quadratic equation; read-out: inhibitory value (Ki) for NIK.

Assay [2] concerns NF-kB signaling through NIK in human embryonic kidney 293 cells. Put plainly: 293-NIK NF-kB-Luciferase reporter assay. It is filed as cell-based. The note with it: HEK293, 293 cells with tetracycline-inducible NIK, 1 ug/mL doxycycline, 24 hours, read-out: inhibitory value (IC50) for 293-NIK NF-kB-Luciferase activity. An excerpt: (1) The first assay was used to profile whether a test compound can inhibit the NF-kB signally through NIK inhibition without affecting cell viability. In this assay, human embryonic kidney 293 cells was stably transfected with a tetracycline-inducible NIK DNA construct containing a cytomegalovirus promoter plus two reporter DNA constructs. One reporter encoded firefly luciferase under the control of three repeats of an NF-kB response element from the ELAM-1 gene and reflects the level of NIK activity in the cells, whereas the other reporter constitutively expressed Renilla luciferase under the control of the herpes simplex virus thymidine kinase promoter and served as a general measure of cell viability. Cells were incubated with different concentrations of compounds (0.2% DMSO final) in medium containing 1 ug/mL doxycycline and 10% tet-system approved fetal bovine serum (Clontech) for 24 hours, after which the reporters' signals were detected using the Dual Glo luciferase detection system (Promega) according to the vendor's protocol. The compounds listed in Table 1 have the corresponding inhibitory value (IC50 in micromolar) for 293-NIK NF-kB-Luciferase activity (values for compounds are presented in the same order as found in Table 1): na, 0.059, na, na, na, 0.105, 0.027, na, 20, 1.2, na, 1.8, 0.0231, 0.879, 0.0361, 0.582, na, 0.142, na, 0.403, 0.059, 0.0331, na, na, 0.0573, 1.5, na, na, 0.0722, na, na, 0.589, 12.7, 3.7, 14.9, na, 0.707, 1, 0.0311, 0.332, 0.309, 0.0142, 0.051, 2.8, 0.129, na, na, 1.5, na, na, na, 1.3, 0.062, 20, 0.31, 0.104, 0.091, 0.037, 0.085, 0.279, na, 0.305, 0.064, 0.332, 0.133, 0.168, 0.217, 0.553, na and na.
(A reporter such as luciferase makes a cellular process visible.)

Assay [3] has as its system REL-A (p65) nuclear translocation in HeLa cells. Put plainly: NIK RelA Translocation Assay (classical NF-kB signaling). The note with it: Homo sapiens; HeLa cells, compounds 4.5 hours, 10 ng/mL TNF-α 30 minutes; read-out: inhibitory value (IC50) for NIK RelA Translocation Assay. Type of assay: cell-based. As to the method:
(§1) (2) A second set of cell assay was used to define the selectivity of NIK inhibitors toward inhibition of classical vs. non-classical NF-kB signaling and rely on quantification of the nuclear translocation of p52 (NF-kB2) and REL-A (p65) using high content cellular imaging. For the p52 (non-classical NF-kB signaling) nuclear translocation assay, HeLa cells were treated with different concentrations of compounds (0.2% DMSO final) in medium containing 10% fetal bovine serum and then stimulated with 100 ng/mL of an anti-lymphotoxin beta receptor antibody (R&D Systems) for 5 hours. In the REL-A nuclear translocation assay, HeLa cells were incubated with compounds (0.2% DMSO final) for 4.5 hours in medium containing 10% fetal bovine serum before stimulating them with 10 ng/mL tumor necrosis factor (TNF)-α (R&D Systems) for 30 minutes. Cells were fixed with 4% paraformaldehyde, permeabilized by adding 0.1% Triton X-100 in phosphate buffered saline, and then incubated with either 2 ug/mL anti-p52 antibody (Millipore) or 400 ng/mL anti-REL-A (p65) antibody (Santa Cruz Biotechnology). Finally, the cells were incubated with an Alexa488-labeled secondary antibody (Invitrogen) and DRAQ5 DNA stain (Biostatus). Imaging was carried out using an Opera reader (Perkin Elmer) and data are analyzed with the aid of Acapella software (Perkin Elmer). The p52 or REL-A translocation into the nucleus was quantified by the ratio of the nuclear to cytoplasmic signal intensity. The concentration of inhibitor required for 50% inhibition (IC50 values) in these cell assays were derived from the plots of signal vs. inhibitor concentration. The compounds in listed in Table 1 have the corresponding inhibitory value (IC50 in micromolar) for NIK p52 Translocation Assay (values for compounds are presented in the same order as found in Table 1, and “na” means the data for this assay is to be determined): 0.326, 0.33, na, na, na, 0.218, 0.07, na, na, na, 0.129, 7.6, 0.077, 3.4, na, 0.518, na, 0.059, 0.514, 0.127, na, na, 0.010, na, na, 0.313, 0.275, na, 0.0727, na, na, na, na, na, na, 0.194, na, 6.4, 0.22, 0.346, na, na, na and na, na, na, na, na, na, 0.447, na, 0.089, 0.479, 0.489, 0.243, 0.747, 1, na, 1.9, 0.552, 2.1, na. na, na, na, na and na.
The compounds in listed in Table 1 has the corresponding inhibitory value (IC50 in micromolar) for NIK RelA Translocation Assay (values for compounds are presented in the same order as found in Table 1): 0.326, 0.33, na, na, na, 0.218, 0.07, na, na, na, na, na, 0.129, 7.6, 0.077, 3.4, na, 0.518, na, 0.059, 0.514, 0.127, na, na, 0.010, na, na, 0.313, 0.275, na, na, 0.0727, na, na, na, na, na, na, 0.194, na, 6.4, 0.22, 0.346, na, na, na, na, na, na, na, na, na, 0.447, na, 0.089, 0.479, 0.489, 0.243, 0.747, 1, na, 1.9, 0.552, 2.1, na, na, na, na, na and na.

For assay [4], the system named is p52 (NF-kB2) nuclear translocation in HeLa cells. As to the kind of experiment: NIK p52 Translocation Assay (non-classical NF-kB signaling). Type of assay: cell-based. Particulars: Homo sapiens; HeLa cells, 100 ng/mL anti-lymphotoxin beta receptor antibody, 5 hours; read-out: inhibitory value (IC50) for NIK p52 Translocation Assay. As to the method:
as §1

T1 sequence (Q99558 whole entry): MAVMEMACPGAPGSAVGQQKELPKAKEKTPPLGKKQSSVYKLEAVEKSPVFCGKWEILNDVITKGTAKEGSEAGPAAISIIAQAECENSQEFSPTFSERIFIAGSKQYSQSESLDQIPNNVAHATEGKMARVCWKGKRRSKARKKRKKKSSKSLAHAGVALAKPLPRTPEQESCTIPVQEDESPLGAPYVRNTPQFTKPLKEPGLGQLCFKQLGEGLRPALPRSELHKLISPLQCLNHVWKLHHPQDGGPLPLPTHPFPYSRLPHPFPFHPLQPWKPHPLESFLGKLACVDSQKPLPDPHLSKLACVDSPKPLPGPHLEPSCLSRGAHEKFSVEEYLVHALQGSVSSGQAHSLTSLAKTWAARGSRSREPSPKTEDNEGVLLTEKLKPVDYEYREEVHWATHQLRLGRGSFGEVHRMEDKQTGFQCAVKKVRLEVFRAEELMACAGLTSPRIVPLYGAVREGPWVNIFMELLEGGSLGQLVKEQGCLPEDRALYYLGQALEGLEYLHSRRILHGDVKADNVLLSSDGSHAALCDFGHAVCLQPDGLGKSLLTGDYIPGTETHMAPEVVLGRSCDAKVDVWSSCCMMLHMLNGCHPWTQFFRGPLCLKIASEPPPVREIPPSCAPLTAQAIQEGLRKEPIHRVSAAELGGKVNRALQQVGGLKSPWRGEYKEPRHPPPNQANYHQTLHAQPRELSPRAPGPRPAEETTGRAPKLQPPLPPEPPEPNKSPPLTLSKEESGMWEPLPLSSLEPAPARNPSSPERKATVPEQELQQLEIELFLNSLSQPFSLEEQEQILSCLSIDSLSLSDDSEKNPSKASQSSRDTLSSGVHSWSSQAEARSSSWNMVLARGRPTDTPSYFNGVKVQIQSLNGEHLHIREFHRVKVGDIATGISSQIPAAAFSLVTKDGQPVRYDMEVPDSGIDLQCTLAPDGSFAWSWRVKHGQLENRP

By Ki is commonly meant a measure of affinity in units of concentration, obtained from inhibition or displacement. Usually IC50 stands for the point on the concentration scale where inhibition reaches its midpoint. As to `Cc1nn(-c2ccnc(N)n2)c2cc(C#C[C@@](C)(O)c3nccs3)ccc12` (stereo in doubt) [Example T1-42, 4-(1-(2-aminopyrimidin-4-yl)-3-methyl-1H-indazol-6-yl)-2-(thiazol-2-yl)but-3-yn-2-ol], the Ki in assay [1] stood at 0.00014 µM. In addition, the IC50 stood at 0.0142 µM in assay [2] and 0.22 µM in assay [3].

For `Cc1nn(-c2ccnc(N)n2)c2cc(C#CC(C)(O)c3nccs3)ccc12` (stereo not drawn) [Example T1-13, 4-(1-(2-aminopyrimidin-4-yl)-3-methyl-1H-indazol-6-yl)-2-(thiazol-2-yl)but-3-yn-2-ol], the Ki in assay [1] came to 0.000262 µM. For the same molecule, the figures for the IC50 in assay [2], in assay [4] and in assay [3] were 0.0231 µM, 0.077 µM and 0.129 µM, respectively.

Regarding `CC(O)(C#Cc1ccc2nc(C3CC3)n(-c3ccnc(N)n3)c2c1)c1nccs1` (stereo not drawn) [Example T1-14, 4-(1-(2-aminopyrimidin-4-yl)-2-cyclopropyl-1H-benzo[d]imidazol-6-yl)-2-(thiazol-2-yl) but-3-yn-2-ol], the Ki in assay [1] worked out at 0.0069 µM. Besides, the IC50 in assay [2] was 0.879 µM; in assay [4], 3.4 µM; in assay [3], 7.6 µM.

Consider `CC(O)(C#Cc1ccc2cnn(-c3ccnc(N)n3)c2c1)c1ncco1` (stereo not drawn) [Example T1-15, 4-(1-(2-aminopyrimidin-4-yl)-1H-indazol-6-yl)-2-(oxazol-2-yl)but-3-yn-2-ol], for which the Ki in assay [1] was 0.00032 µM. Further, the IC50 is 0.0361 µM in assay [2] and 0.077 µM in assay [3].

As to `CC1(C(=O)Nc2cnc(N)nc2-n2ncc3ccc(C#CC(C)(O)c4nccs4)cc32)COC1` (stereo not drawn) [Example T1-16, N-(2-amino-4-(6-(3-hydroxy-3-(thiazol-2-yl)but-1-ynyl)-1H-indazol-1-yl)pyrimidin-5-yl)-3-methyloxetane-3-carboxamide], the Ki in assay [1] is 0.027 µM. In addition, the IC50 was 0.582 µM in assay [2], 0.518 µM in assay [4] and 3.4 µM in assay [3].

With `CC(O)(C#Cc1ccc2c(CN3CCOCC3)nn(-c3ccnc(N)n3)c2c1)c1nccs1` (stereo not drawn) [Example T1-18, 4-(1-(2-aminopyrimidin-4-yl)-3-(morpholinomethyl)-1H-indazol-6-yl)-2-(thiazol-2-yl) but-3-yn-2-ol], the Ki in assay [1] is 0.0017 µM. The IC50 in assay [2] stood at 0.142 µM; in assay [4] it was 0.059 µM; in assay [3] it was 0.518 µM.

In the case of `CC(C)(O)C#Cc1ccc2[nH]c(=O)n(-c3ccnc(N)n3)c2c1` [Example T1-20, 1-(2-aminopyrimidin-4-yl)-6-(3-hydroxy-3-methylbut-1-ynyl)-1H-benzo[d]imidazol-2(3H)-one], in assay [1], the Ki amounted to 0.049 µM. Further, the IC50 in assay [2] stood at 0.403 µM; in assay [4] it was 0.127 µM; in assay [3], 0.059 µM.

As to `CC(O)(C#Cc1ccc2[nH]c(=O)n(-c3ccnc(N)n3)c2c1)c1nccs1` (stereo not drawn) [Example T1-21, 1-(2-aminopyrimidin-4-yl)-6-(3-hydroxy-3-(thiazol-2-yl)but-1-ynyl)-1H-benzo[d] imidazol-2(3H)-one], in assay [1], the Ki came to 0.0003 µM. Further, the figures for the IC50 in assay [2] and in assay [3] were 0.059 µM and 0.514 µM, respectively.

`CN(C)Cc1nn(-c2ccnc(N)n2)c2cc(C#CC(C)(C)O)ccc12` [Example T1-25, 4-(1-(2-aminopyrimidin-4-yl)-3-((dimethylamino)methyl)-1H-indazol-6-yl)-2-methylbut-3-yn-2-ol]: the Ki in assay [1] worked out at 0.012 µM. Further, the figures for the IC50 in assay [2] and in assay [3] were 0.0573 µM and 0.01 µM, respectively.

`Cc1cc(C(C)(O)C#Cc2ccc3ncn(-c4ccnc(N)n4)c3c2)no1` (stereo not drawn) [Example T1-28, 4-(1-(2-aminopyrimidin-4-yl)-1H-benzo[d]imidazol-6-yl)-2-(5-methylisoxazol-3-yl) but-3-yn-2-ol]: the Ki in assay [1] was found to be 0.00042 µM. Also, the IC50 in assay [3] is 0.313 µM.

On to `CN(C)C(=O)c1nn(-c2ccnc(N)n2)c2cc(C#CC(C)(O)c3nccs3)ccc12` (stereo not drawn) [Example T1-29, 1-(2-aminopyrimidin-4-yl)-6-(3-hydroxy-3-(thiazol-2-yl)but-1-ynyl)-N,N-dimethyl-1H-indazole-3-carboxamide], for which the Ki in assay [1] is 0.0009 µM. The IC50 in assay [2] amounted to 0.0722 µM; in assay [4] it was 0.0727 µM; in assay [3], 0.275 µM.

In the case of `CN(C)Cc1nn(-c2ccnc(N)n2)c2cc(C#CC(C)(O)c3ncco3)ccc12` (stereo not drawn) [Example T1-32, 4-(1-(2-aminopyrimidin-4-yl)-3-((dimethylamino)methyl)-1H-indazol-6-yl)-2-(oxazol-2-yl)but-3-yn-2-ol], in assay [1], the Ki was found to be 0.0013 µM. The IC50 in assay [2] came out at 0.589 µM; in assay [3], 0.0727 µM.

For the molecule `CC(O)(C#Cc1cc2c(cc1F)ncn2-c1ccnc(N)n1)c1nccs1` (stereo not drawn) [Example T1-39, 4-(1-(2-aminopyrimidin-4-yl)-5-fluoro-1H-benzo[d]imidazol-6-yl)-2-(thiazol-2-yl)but-3-yn-2-ol], in assay [1], the Ki came to 0.00025 µM. The IC50 worked out at 0.0311 µM in assay [2], 0.22 µM in assay [4] and 0.194 µM in assay [3].

`Cc1cc(C(C)(O)C#Cc2ccc3ncn(-c4ccnc(N)n4)c3c2)on1` (stereo not drawn) [Example T1-41, 4-(1-(2-aminopyrimidin-4-yl)-1H-benzo[d]imidazol-6-yl)-2-(3-methylisoxazol-5-yl) but-3-yn-2-ol]: the Ki in assay [1] turned out to be 0.0085 µM. Moreover, the IC50 was determined as 0.309 µM in assay [2] and 6.4 µM in assay [3].

For `CN(C)C(=O)c1nn(-c2ccnc(N)n2)c2cc(C#CC(C)(O)c3ncco3)ccc12` (stereo not drawn) [Example T1-43, 1-(2-aminopyrimidin-4-yl)-6-(3-hydroxy-3-(oxazol-2-yl)but-1-ynyl)-N,N-dimethyl-1H-indazole-3-carboxamide], the Ki in assay [1] stood at 0.0002 µM. Also, the IC50 in assay [2] came to 0.051 µM; in assay [3] it was 0.346 µM.

The values above are taken from US8901313B2, “6,5-heterocyclic propargylic alcohol compounds and uses therefor” (Genentech, Inc., priority 2011, dated 2014).
